Reference: patent publication US20080274112A1, “Nogo Receptor Antagonists” (priority 2003, published 2008)

Key:
[1] = molecular target: T1, MAG + sNogoR344-Fc (Rattus norvegicus, UniProt Q99M75, A303T/C287S/C43R/E284G/T53A); assay: mAb/Fab inhibition of MAG binding to sNogoR344-Fc (ELISA)
T1 construct: amino acid residues 26-344 of rat Nogo receptor-1; made in house
T1 sequence (Q99M75 26-344 C43R/T53A/E284G/C287S/A303T): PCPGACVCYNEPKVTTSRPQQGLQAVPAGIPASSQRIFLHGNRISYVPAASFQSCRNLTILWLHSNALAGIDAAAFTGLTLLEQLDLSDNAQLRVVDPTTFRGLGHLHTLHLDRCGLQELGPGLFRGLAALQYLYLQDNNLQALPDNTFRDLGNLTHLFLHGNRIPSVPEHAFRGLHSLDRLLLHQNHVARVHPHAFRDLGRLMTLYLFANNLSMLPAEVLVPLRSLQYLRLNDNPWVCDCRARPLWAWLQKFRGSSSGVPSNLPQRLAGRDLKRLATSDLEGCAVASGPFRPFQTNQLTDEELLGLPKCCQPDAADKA
Method: (§1) 0.5 μg of a soluble Nogo receptor-1 fusion protein comprising amino acid residues 26-344 of rat Nogo receptor-1 and the hinge and Fc region of the rat IgG1 molecule (sNogoR344-Fc) produced as described below was immobilized on 250 μg of protein-A- or wheatgerm agglutinin-conjugated SPA beads (Amersham Pharmacia Biotech) for 2 hours at 25° C. SPA beads coupled with Fc-sNogoR-1, anti-Nogo receptor-1 mAb and 1 μl ^125I-Nogo66 (Amersham, 2000 Ci/mmol, 1 nM) in 50 μl of the HEPES-buffered incubation medium (10 mM HEPES, pH 7.4, 0.1% bovine serum albumin, 0.1% ovalbumin, 2 mM MgCl2, 2 mM CaCl2 and protease inhibitors) was added to each sample well. After 16 hours, radioactivity was measured in quadruplicate samples using a TopCount® (Packard). IC50 values were calculated from a curve-fit analysis (FIG. 3) (PRISM, GraphPad Software, NJ). In some experiments, we also used AP-ligand conjugates (e.g. AP-Nogo66) and detected binding by monitoring alkaline phosphatase activity. We also assayed the ability of the mAbs to block binding of the ligands MAG-Fc and AP-OM-gp to Nogo receptor-1.
(§2) The calculated IC50 for Nogo66 for 7E11 and 1H2 were 400 nM and 60 nM, respectively. The data from ELISAs monitoring mAb-mediated inhibition of binding of the three ligands to Nogo receptor-1 are summarized in Table 6.
(§3) We also performed ELISA binding assays using the Fab-phage 14D5.

[2] = molecular target: T2, OM-gp + sNogoR344-Fc (Rattus norvegicus, UniProt Q99M75, A303T/C287S/C43R/E284G/T53A); assay: mAb/Fab inhibition of OM-gp binding to sNogoR344-Fc (ELISA)
T2 construct: amino acid residues 26-344 of rat Nogo receptor-1; made in house
T2 sequence (Q99M75 26-344 C43R/T53A/E284G/C287S/A303T): T1 sequence (Q99M75 26-344 C43R/T53A/E284G/C287S/A303T)
Method: as §1, §2, §3

[3] = test system: DRG neurons; assay: Neurite outgrowth assay, myelin mixed with test protein (Example 10); assay type: cell-based; details: P3-4 rat DRG; spotted mixed with CNS myelin
Method: Lab-Tek® culture slides (4 wells) were coated with 0.1 mg/ml poly-D-lysine (Sigma®). CNS myelin alone or mixed with sNogoR310, sNogoR310-Fc fusion protein, mAb 5B10 or control PBS were separately spotted as 3 μl drops. Fluorescent microspheres (Polysciences) were added to the myelin/PBS to allow later identification of the drops (Grandpre et al, Nature 403, 2000). Lab-Tek® slides were then rinsed and coated with 10 μg/ml laminin (Gibco™).
Dorsal root ganglions (DRG's) from P3-4 Sprague Dawley rat pups were dissociated with 1 mg/ml collagenase type 1 (Worthington), triturated with fire-polished Pasteur pipettes pre-plated to enrich in neuronal cells and finally plated at 23,000 cells/well on the pre-coated Labtek culture slides. The culture medium was F12 containing 5% heat inactivated donor horse serum, 5% heat inactivated fetal bovine serum and 50 ng/ml MNGF and incubated at 37° C. and 5% CO2 for 6 hours.
Slides were fixed for 20 minutes with 4% paraformaldehyde containing 20% sucrose and stained for the neuronal marker anti beta-III-tubulin (Covance TUJ1) diluted 1:500. As secondary antibody anti-mouse Alexa Fluor® 594 (Molecular Probes) was diluted 1:300 and slides were coverslipped with Gel/Mount™ (Biømeda™). 5× digital images were acquired with OpenLab™ software and analyzed by using the MetaMorph® software for quantification of neurite outgrowth.

[4] = molecular target: T3, Nogo66 + sNogoR344-Fc (Rattus norvegicus, UniProt Q99M75, A303T/C287S/C43R/E284G/T53A); assay: mAb/Fab inhibition of Nogo66 binding to sNogoR344-Fc (ELISA)
T3 construct: amino acid residues 26-344 of rat Nogo receptor-1; made in house
T3 sequence (Q99M75 26-344 C43R/T53A/E284G/C287S/A303T): T1 sequence (Q99M75 26-344 C43R/T53A/E284G/C287S/A303T)
Method: as §1, §2, §3

[5] = molecular target: polypeptide p-617 (SEQ ID NO: 1) (Rattus norvegicus, UniProt Q99M75); assay: Specificity ELISA on polypeptide p-617; assay type: binding
Description: To determine the specificity of the monoclonal and Fab-phage antibodies produced in Examples 1 and 2, we performed an ELISA using a panel of Nogo receptor-1 polypeptides. The panel consisted of sNogoR310-Fc (a fusion protein comprising amino acids 26-310 of rat Nogo receptor-1 and a rat Fc fragment), sNogoR344-Fc (see supra), polypeptide p-617 (SEQ ID NO: 1), polypeptide p-618 (a 19-amino acid polypeptide from the LRR7 region of rat Nogo receptor-1; FIG. 2; SEQ ID NO: 11) and polypeptides p-4 and p-5 (polypeptides from the LRR5 and LRRCT regions of Nogo receptor-1, respectively). Ovalbumin and BSA were used as controls.

[6] = test system: 7E11; assay: 7E11 binding to digest peptides of NgR1 (MS analysis); design: species or system murine; details: trypsin or Asp-N digest peptides
Method: The 7E11 binding site was further analyzed by testing trypsic peptide digests of sNgR310. […] 7E11 bound only a single tryptic digest peptide, providing additional evidence that […] binds to a single epitope on NgR1. Subsequent mass spectroscopy (MS) and sequence analyses identified the bound peptide to be […] (SEQ ID NO: 26).
The LDLSDNAQLRVVDPTT peptide (SEQ ID NO: 1) was subjected to further mapping analysis. The peptide was digested with trypsin, which yielded two major fragments, LDLSDNAQLR (SEQ ID NO: 27) and VVDPTT (SEQ ID NO: 28), and the ability of 7E11 to bind them was tested. […] Within this peptide fraction, detailed MS analysis identified several scrambled peptides that also bound 7E11, including peptides with deamination at Asn115 and Gln117, addition of Alanine at 112 or 113, or addition of Serine at 114 (Table 3).
The LDLSDNAQLRVVDPTT peptide was also digested with the endoprotease Asp-N and 7E11 binding was tested. Endoprotease Asp-N cleaved the peptide into 3 peptide fragments, L, DLS and DNAQLRVVDPTT (SEQ ID NO: 36). Of these products, 7E11 bound the DNAQLRVVDPTT peptide. Taken together, the trypsin and Asp-N cleavage data further localize the 7E11 binding epitope to the sequence shared between them, DNAQLR (SEQ ID NO: 37).

[7] = test system: 7E11; assay: 7E11 binding to immobilized point-mutant peptides (EC50); design: species or system murine
Method: To verify these contact points, several peptides containing point mutations within the LDLSDNAQLR sequence (SEQ ID NO: 27) were generated and tested for 7E11 binding. The peptides were immobilized on a MaxiSorp™ plate (Nunc®) and serial dilutions of […] were applied. […] The most significant change in EC50 was observed when Arg119 was mutated to Alanine.

[8] = test system: Nogo receptor-1; assay: Blocking of ligand binding to Nogo receptor-1 by soluble receptors

## 5B10: murine monoclonal anti-Nogo receptor-1 antibody, IgG1 kappa, ATCC PTA-4588; immunogen rat Nogo receptor-1 residues 110-125
[1]
  inhibition of binding of MAG to sNogoR344-Fc: inhibited binding
[2]
  inhibition of binding of OM-gp to sNogoR344-Fc: inhibited binding
[3]
  protection from myelin-mediated inhibition of neurite outgrowth: protected
[4]
  inhibition of binding of Nogo66 to sNogoR344-Fc: inhibited binding
[5]
  binding to polypeptide p-617: specifically bound

## AAAFGLTLLEQLDLSDNAQLR (AAAFTGLTLLEQLDLSDNAQLR) [tryptic digest peptide of sNgR310]
[6]
  binding by 7E11: bound

## DNAQLRVVDPTT
[6]
  binding by 7E11: bound

## LDLSDNAALRVVDPTT [Q117A]
[7]
  increase of EC50 versus original peptide: 30 fold

## LDLSDNAQLHVVDPTT [R119H]
[7]
  increase of EC50 versus original peptide: 25 fold

## LDLSDNAQLR
[6]
  binding by 7E11: bound

B1: sNogoR344: soluble Nogo receptor-1 polypeptide, residues 26-344 or 27-344 (protein, listed as Rattus sp.)
chain: T1 sequence (Q99M75 26-344 C43R/T53A/E284G/C287S/A303T)
[8]
  blocking of binding of NogoA, NogoB, NogoC, MAG and OM-gp to Nogo receptor-1: block the binding
